Results on two compounds are retold here after US20250122504A1, “COMBINATIONS WITH MODULATORS OF PNPLA3 EXPRESSION” (AstraZeneca AB, priority 2021, published 2025).

{GalNAc3} = triantennary N-acetylgalactosamine conjugate

Data set [1] relates to Pnpla3^148M/M mice fed a NASH-inducing diet. As to the kind of experiment: Liver fibrosis as liver collagen 1A1 content (immunohistochemistry). The format is in vivo, mouse. Conditions: 14 weeks treatment, compared to control ASO, FIG. 5. The procedure: (§1) Male Pnpla3^148M/M mice (6-8 weeks of age) were fed a diet high in fat (40 kcal % fat (non-trans fat Primex Shortening), fructose (20 kcal %) and cholesterol (2%) (NASH diet; D16022301, Research Diets, New Brunswick, NJ) for 22 weeks. The mice were then assigned to study groups based on body weight, and fed the same NASH diet and dosed with either 1) control ASO+saline, 2) Pnpla3 ASO+saline, 3) control ASO+Cotadutide, or 4) Pnpla3 ASO+Cotadutide for 14 weeks. The ASOs were dosed at 5 mg/kg/week administered by two subcutaneous injections per week with saline as vehicle. Cotadutide was dosed at 1 nmol/kg administered by daily subcutaneous injections with saline as vehicle. […] Body weights were recorded during the study. […]
Four μm thick formaldehyde-fixed, paraffin-embedded mouse liver sections (one lover section per mouse) were routinely stained with hematoxylin-eosin (HE). […] Slides were scanned into Panoramic Scan II (3Dhistech, Hungary), and digital images were analyzed using the image analysis program Visiopharm (version 2020.03.0.7300, Visiopharm, Hørsholm, Denmark) by detecting stained area per total section area for Galectin-3 or Collagen 1A1.

The test system is the same in data set [2]. Kind of data set: NAFLD activity score (NAS) and inflammation score from liver histology. The format is in vivo, mouse. Conditions: 14 weeks treatment, FIG. 4. The procedure: as §1
The NAFLD activity score (NAS) was determined according to the method reported by Kleiner et al (Kleiner et al Hepatology, 2005, DOI: 10.1002/hep.20701). […]
Differences between treatment groups were examined using 1-way ANOVA followed by Tukey's post-hoc tests (GraphPad Prism v.8.0.1., GraphPad Software, CA). Differences between treatment groups for the NAFLD activity score (NAS) derived from liver histology were analyzed by ordinal regression analyses followed by correction of family-wise error rate using the Šidák method. […]

The nature of data set [3]: Body weight change in Pnpla3^148M/M knock-in mice fed a NASH-inducing diet. It counts as in vivo, mouse. Particulars: Pnpla3^148M/M mice, NASH diet 36 weeks, treatment last 14 weeks; ASO 5 mg/kg/week s.c.; Cotadutide 1 nmol/kg daily s.c.; FIG. 1A. The method, then: All animal experiments were performed with humane care and were approved by the Gothenburg Ethics Committee for Experimental Animals in Sweden. The holding facility has received full accreditation from the Association for Assessment and Accreditation of Laboratory Animal Care (AAALAC). The human PNPLA3 […] mutation was introduced into the mouse Pnpla3 gene by replacing the isoleucine codon with a methionine codon in amino acid position 148 of the mouse Pnpla3 gene using homologous recombination as described before (Lindén et al Mol Metab, 2019, DOI: 10.1016/j.molmet.2019.01.013). Heterozygous Pnpla3^148I/M mice were intercrossed to generate experimental homozygous Pnpla3^148M/M knock-in mice for the pharmacology study. […]
Male Pnpla3^148M/M mice (6-8 weeks of age) were fed a diet high in fat (40 kcal % fat (non-trans fat Primex Shortening), fructose (20 kcal %) and cholesterol (2%) (NASH diet; D16022301, Research Diets, New Brunswick, NJ) for 22 weeks. The mice were then assigned to study groups based on body weight, and fed the same NASH diet and dosed with either 1) control ASO+saline, 2) Pnpla3 ASO+saline, 3) control ASO+Cotadutide, or 4) Pnpla3 ASO+Cotadutide for 14 weeks. […] Body weights were recorded during the study. […]

In another data set the test system is mouse Pnpla3 mRNA. Kind of data set: Liver Pnpla3 mRNA by qPCR in Pnpla3^148M/M mice on NASH diet. Conditions: 14 weeks treatment, ASO 5 mg/kg/week s.c., FIG. 1B. It counts as in vivo. The procedure:
Male Pnpla3^148M/M mice (6-8 weeks of age) were fed a diet high in fat (40 kcal % fat (non-trans fat Primex Shortening), fructose (20 kcal %) and cholesterol (2%) (NASH diet; D16022301, Research Diets, New Brunswick, NJ) for 22 weeks. The mice were then assigned to study groups based on body weight, and fed the same NASH diet and dosed with either 1) control ASO+saline, 2) Pnpla3 ASO+saline, 3) control ASO+Cotadutide, or 4) Pnpla3 ASO+Cotadutide for 14 weeks. The ASOs were dosed at 5 mg/kg/week administered by two subcutaneous injections per week with saline as vehicle. Cotadutide was dosed at 1 nmol/kg administered by daily subcutaneous injections with saline as vehicle. […] Body weights were recorded during the study. At sacrifice, unfasted mice were euthanized with isoflurane (Forene, Abbot Scandinavia AB, Sweden), blood was collected and plasma isolated, livers were collected, and pieces (same position in the left lateral lobe for all mice) were fixed with 4% formaldehyde in PBS for histology or snap-frozen in liquid N2 and stored at −80° C.
RNA was isolated from snap-frozen liver tissue using the RNeasy Mini Kit (Qiagen, Germany). The cDNA templates were generated by reverse transcription with a cDNA kit (ThermoFisher Scientific, Stockholm, Sweden) and used for real-time quantitative PCR with the QuantStudio 7 Flex instrument (Applied Biosystems, Stockholm, Sweden). […]

For `CCCCCCCCCCCCCCCC(=O)N[C@@H](CCC(=O)NCCCC[C@H](NC(=O)[C@H](CC(=O)O)NC(=O)[C@H](CO)NC(=O)[C@@H](NC(=O)[C@H](Cc1ccccc1)NC(=O)[C@@H](NC(=O)CNC(=O)[C@H](CCC(N)=O)NC(=O)[C@H](CO)NC(=O)[C@@H](N)Cc1c[nH]cn1)[C@@H](C)O)[C@@H](C)O)C(=O)N[C@@H](CO)C(=O)N[C@@H](CCC(=O)O)C(=O)N[C@@H](Cc1ccc(O)cc1)C(=O)N[C@@H](CC(C)C)C(=O)N[C@@H](CC(=O)O)C(=O)N[C@@H](CO)C(=O)N[C@@H](CCC(=O)O)C(=O)N[C@@H](CCCNC(=N)N)C(=O)N[C@@H](C)C(=O)N[C@@H](CCCNC(=N)N)C(=O)N[C@@H](CC(=O)O)C(=O)N[C@@H](Cc1ccccc1)C(=O)N[C@H](C(=O)N[C@@H](C)C(=O)N[C@@H](Cc1c[nH]c2ccccc12)C(=O)N[C@@H](CC(C)C)C(=O)N[C@@H](CCC(=O)O)C(=O)N[C@@H](C)C(=O)NCC(=O)NCC(=O)O)C(C)C)C(=O)O` [Cotadutide], the “liver fibrosis measured as liver collagen 1A1 content” value in data set [1] was “tended to reduce the liver collagen 1A1 content”. Besides, in data set [2], the “NAFLD activity score (NAS) compared to control ASO treated animals” value is recorded as “reduced the NAS”. For the same compound, the “body weight-gain during the treatment period compared to control ASO treated animals” value in data set [3] was “reduced body weight-gain”.

As to “Pnpla3 ASO: mouse cEt-modified 16-mer ASO targeting mouse Pnpla3 gene (5′-TATTTTTGGTGTATCC-3′, SEQ ID NO: 37), 5′-conjugated with triantennary GalNAc3 (5' {GalNAc3}, sugars by position and backbone not given here; cEt-modified)”, in data set [1], the “liver fibrosis measured as liver collagen 1A1 content” value is recorded as “tended to reduce liver fibrosis”. Moreover, the “NAFLD activity score (NAS) compared to control ASO treated animals” value in data set [2] is recorded as “reduced the NAS”. Further, the “reduction of liver Pnpla3 mRNA levels” value in the data set on mouse Pnpla3 mRNA is recorded as ≥ 97%. For the same compound, in data set [3], the “body weight-gain during the treatment period compared to control ASO treated animals” value was “but not Pnpla3 ASO treatment reduced body weight-gain”.
